Source: PMC13195669, “GPR3 Ligands Discovered through Combined Virtual and Conformational Biosensor-Based Screening” (Journal of the American Chemical Society, 2026)

Key:
GPR3 [1] = target: T1, GPR3 (Homo sapiens, UniProt P46089, INS231ASEIGTGFPFDPHYVEVLGERMHYVDVGPRDGTPVLFLHGNPTSSYVWRNIIPHVAPTHRCIAPDLIGMGKSDKPDLGYFFDDHVRFMDAFIEALGLEEVVLVIHDWGSALGFHWAKRNPERVKGIAFMEFIRPIPTWDEWPEFARETFQAFRTTDVGRKLIIDQNVFIEGTLPMGVVRPLTEVEMDHYREPFLNPVDREPLWRFPNELPIAGEPANIVALVEEYMDWLHQSPVPKLLFWGTPGVLIPPAEAARLAKSLPNCKAVDIGPGLNLLQEDNPDLIGSEIARWLSTLEISGGS); assay: BRET-based conformational GPR3 biosensor (GPR3-HaloTag/Nluc) in HEK293A cells; assay type: cell-based; conditions: for BRET response of GPR3 biosensor (direction, words): HEK293A
T1 construct: ligated to the full-length C-terminus; expressed in transfected cells; some experiments transient
Source text: To develop a conformational GPR3 biosensor that can be used in a microtiter well plate format, we employed the intramolecular BRET design previously validated for several GPCRs. − The BRET donor NanoLuc was fused to the receptor’s full-length C-terminus and the self-labeling protein tag, HaloTag, was inserted into GPR3′s third intracellular loop between amino acids Arg231 and His232 (Figure a; sequence in Figure S1). […]
Plasmids and molecular cloning […]
Plasmids encoding the conformational biosensors α2AAR- and β2AR-HaloTag/Nluc9 and the Gs heterotrimer dissociation sensor10 were previously described. The expression plasmid encoding N-terminally HA-tagged GPR3 (cat. no.
#GPR003TN00) on a pcDNA3.1+ vector was obtained from the cDNA resource center (cdna.org). The Nluc and HaloTag in-serts were amplified with overhanging restriction sites from β2AAR- HaloTag/Nluc and ligated to the full-length C-terminus or inserted into icl3 of GPR3, respectively, to obtain the conformational biosensor GPR3-HaloTag/Nluc. Point mutants of GPR3-HaloTag/Nluc were generated using the GeneArt Site-directed Mutagenesis System (Thermo Fisher Scientific). All con-structs were verified by sequencing (Eurofins genomics). […]
serum albumin (BSA) were obtained from Sigma Aldrich (Merck KGaA). Dulbecco's Modified Eagle's Medium (DMEM), Dul- […]
Diphenyleneiodonium chloride (DPI) and AF64394 were purchased from Tocris (Bio -Techne). The TMB (3, 3', 5, 5' tetramethyl benzidine) substrate reagent set was […]
were obtained in a single kit from Promega (cat. no. N1662). D-luciferin-sodium and the S1PR1 agonist III were from Med-ChemExpress. The Rluc substrate coelenterazine 400a was from NanoLight Technology (cat. no. 340 -10). White -wall, white - bottomed 96 -well, black -wall, black bottomed and transparent 96 -well microtiter plates were from Brand.
HEK293A cells were used for transient transfection and grown in Dulbecco’s modified Eagle’s medium (DMEM) supplemented with 2 mM glutamine, 10 % fetal calf serum, streptomycin (0.1 mg/mL), and penicillin (100 U/mL) at 37 °C with 5 % CO2. For the generation of stable GPR3 -HaloTag/Nluc cells, HEK293A cells grown in T75 flasks were transfected at a confluence of 40 – […]
Absence of mycoplasma contamination was routinely
(§1) Transient transfection and plating
Resuspended cells (300,000 cells/mL) were transfected in suspension with a total of 1 μg DNA/mL suspension using PEI (1 mg/ml stock solution; 3 μL PEI solution per μg DNA). […]
Cells mixed with the transfection reagents were seeded onto poly-D-lysine–precoated, 96-well plates and grown for 48 h at 37 °C with 5 % CO2. Stable α2AAR-, β2AR- or GPR3-HaloTag/Nluc expressing cells were seeded 24 h before the experi-ment at a density of 800,000 cells/mL into white 96-well plates. To monitor changes in BRET in with conformational GPCR […]
experiment. White plates were used for BRET and luminescence measurements, black plates for FRET experiments and trans-parent plates for absorbance-based quantification of receptor surface expression levels.

GPR3 [2] = target: T2, GPR3 (Homo sapiens, UniProt P46089); assay: FRET/BRET cAMP biosensor in HEK293A cells cotransfected with GPR3; assay type: cell-based; conditions: cAMP biosensor; pcDNA vs GPR3 transfected HEK293A
T2 construct: host or cells: HEK293A, transient
Source text: With the first GPR3 ligands identified by using a conformational readout in our hands, we next wanted to understand whether these compounds could have been detected in a cAMP-based assay, which has been used extensively in the past to screen for GPR3 ligands. We therefore tested rac-VH1/52, VH2/93 and VH3/115 in cells expressing a cAMP biosensor.
3 Effect of rac-VH1/52, VH2/93 and VH3/115 on GPR3-dependent cAMP production. (a–c) Vehicle-corrected BRET changes induced by rac-VH1/52 (a), VH2/93 (b) or VH3/115 (c) in HEK293A cells transiently transfected with a cAMP BRET sensor along with pcDNA or GPR3. […] Statistical significance was tested using Two-Way ANOVA followed by Sidak multiple comparison (*: […]; **: p < 0.01). […]
Plasmids and molecular cloning
The H187-EPAC-FRET sensor7 was kindly provided by K. Jalink (The Netherlands Cancer Institute, Amsterdam, The Nether-lands). The BRET-based cAMP sensor CAMYEL8 was kindly provided by Laura Humphrys (University of Regensburg, Regens-burg, Germany). Plasmids encoding the conformational biosensors α2AAR- and β2AR-HaloTag/Nluc9 and the Gs heterotrimer dissociation sensor10 were previously described. The expression plasmid encoding N-terminally HA-tagged GPR3 (cat. no.
#GPR003TN00) on a pcDNA3.1+ vector was obtained from the cDNA resource center (cdna.org). The Nluc and HaloTag in-serts were amplified with overhanging restriction sites from β2AAR- HaloTag/Nluc and ligated to the full-length C-terminus or inserted into icl3 of GPR3, respectively, to obtain the conformational biosensor GPR3-HaloTag/Nluc. Point mutants of GPR3-HaloTag/Nluc were generated using the GeneArt Site-directed Mutagenesis System (Thermo Fisher Scientific). All con-structs were verified by sequencing (Eurofins genomics).
Poly-D-lysine, polyethylenimin hydrochloride (linear; average Mn 20 000; PEI) , […], LPA , forskolin, NECA and bovine serum albumin (BSA) were obtained from Sigma Aldrich (Merck KGaA). Dulbecco's Modified Eagle's Medium (DMEM), Dul-becco's Phosphate -Buffered Saline (DPBS) and G -418 (Geneticin) were from Gibco. Diphenyleneiodonium chloride (DPI) and AF64394 were purchased from Tocris (Bio -Techne). The TMB (3, 3', 5, 5' tetramethyl benzidine) substrate reagent set was from BioLegend. The Nluc substrate furimazine and the red fluorescen t HaloTag dye, HaloTag® NanoBRET® 618 Ligand, were obtained in a single kit from Promega (cat. no. N1662). D-luciferin-sodium and the S1PR1 agonist III were from Med-ChemExpress. The Rluc substrate coelenterazine 400a was from NanoLight Technology (cat. no. 340 -10). White -wall, white - bottomed 96 -well, black -wall, black bottomed and transparent 96 -well microtiter plates were from Brand.
HEK293A cells were used for transient transfection and grown in Dulbecco’s modified Eagle’s medium (DMEM) supplemented with 2 mM glutamine, 10 % fetal calf serum, streptomycin (0.1 mg/mL), and penicillin (100 U/mL) at 37 °C with 5 % CO2. […]
as §1
Resuspended cells (300,000 cells/mL) were transfected in suspension with a total of 1 μg DNA/mL suspension using PEI (1 mg/ml stock solution; 3 μL PEI solution per μg DNA). For cAMP experiments with FRET- or BRET-based sensors, resuspended cells were transfected with 500 ng pcDNA, wildtype GPR3 or GPR3-HaloTag/Nluc constructs along with 500 ng of the FRET-or BRET-based cAMP sensor per mL cell suspension. For cAMP experiments with GloSensor™ 22F, resuspended cells were transfected with 250 ng pcDNA or GPCR along with 500 ng of a 1:1 mix of pcDNA with the GloSensor™ 22F per mL cell sus-pension. Cells mixed with the transfection reagents were seeded onto poly-D-lysine–precoated, 96-well plates and grown for 48 h at 37 °C with 5 % CO2. Stable α2AAR-, β2AR- or GPR3-HaloTag/Nluc expressing cells were seeded 24 h before the experi-ment at a density of 800,000 cells/mL into white 96-well plates. To monitor changes in BRET in with conformational GPCR […]

β2AR = assay: β2AR-HaloTag/Nluc conformational biosensor (negative control) in HEK293A cells; assay type: cell-based, human; conditions: β2AR-HaloTag/Nluc as negative control; HEK293A stable
Description: Initially, all 93 molecules were tested for activity at the GPR3 biosensor at a concentration of 1 μM (Figure a). […] Of the five compounds that emerged from the virtual screen, three–hereafter referred to as virtual hit 1–3, VH1/2/3–were selected for in-house chemical synthesis (compounds 52, 93, and 115; cf. Scheme , Figure S6), providing compounds of ≥99% purity for hit validation (NMR spectra: Figures S7–S142; HPLC purity: Figures S143–S218). For VH1, the racemic mix, rac-VH1/52, was synthesized and used for testing. Compounds 52, VH2/93, and VH3/115 (Figure S6) were then validated with the GPR3 biosensor including β2AR-HaloTag/Nluc as a negative control.
BRET-based GPCR conformational sensor experiments
Cells expressing the conformational GPCR biosensors were grown for 24 h (stable cells) or 48 h (transiently transfected cells) in white 96-well plates and washed with 100 µl of HBSS. After washing, cells were incubated for 2 minutes with a 1/1000 solution of the furimazine stock solution (Promega; cat. no. N1662). Three baseline BRET reads were recorded and averaged prior to the addition of serial dilutions of ligands or veh icle control and subsequent BRET reads. All experiments were con-ducted at 37 °C. BRE T donor emission was quantified with a 470/80 nm monochromator. BRET acceptor emission was quan-tified using a 660/100 nm monochromator. Experiments were carried out using a CLARIOstar plate reader. […]
FRET and BRET ratios were defined as acceptor emission/donor emission. […] To quantify ligand-induced changes ΔFRET and ΔBRET were calculated for each well as a percent over basal ([(Ratiostim − Ratiobasal)/Ratiobasal] × 100). […]
Data from FRET/BRET experiments were fitted using a three-parameter fit. Z-factors expressing the high-throughput suita-bility were calculated with the following equation: […]
Commercially available chemicals and solvents were purchased from standard commercial suppliers (Merck (Darmstadt, Ger-many), Sigma-Aldrich (Munich, Germany), Acros Organics (Geel, Belgium), Alfa Aesar (Karlsruhe, Germany), abcr (Karlsruhe, Germany), BLD Pharmatech (Reinbek, Germany) or TCI Europe (Zwijndrecht, Belgium) and were used as received. Deuter-ated solvents for nuclear magnetic resonance (1H NMR and 13C NMR) spectra were purchased from Deutero GmbH (Kastel-laun, Germany). All reactions carried out with dry solvents were accomplished in dry flasks under nitrogen or argon atmos-phere. For the preparation of buffers, HPLC eluents, and stock solutions millipore water was used. […] The reactions were monitored by thin layer chromatography (TLC) on Merck silica gel 60 F254 aluminium sheets and spots were visualized under UV light at 254 nm, by potassium permanganate or ninhydrin staining. […]

T1 sequence (P46089 with tags, fused parts or gaps with the stated changes): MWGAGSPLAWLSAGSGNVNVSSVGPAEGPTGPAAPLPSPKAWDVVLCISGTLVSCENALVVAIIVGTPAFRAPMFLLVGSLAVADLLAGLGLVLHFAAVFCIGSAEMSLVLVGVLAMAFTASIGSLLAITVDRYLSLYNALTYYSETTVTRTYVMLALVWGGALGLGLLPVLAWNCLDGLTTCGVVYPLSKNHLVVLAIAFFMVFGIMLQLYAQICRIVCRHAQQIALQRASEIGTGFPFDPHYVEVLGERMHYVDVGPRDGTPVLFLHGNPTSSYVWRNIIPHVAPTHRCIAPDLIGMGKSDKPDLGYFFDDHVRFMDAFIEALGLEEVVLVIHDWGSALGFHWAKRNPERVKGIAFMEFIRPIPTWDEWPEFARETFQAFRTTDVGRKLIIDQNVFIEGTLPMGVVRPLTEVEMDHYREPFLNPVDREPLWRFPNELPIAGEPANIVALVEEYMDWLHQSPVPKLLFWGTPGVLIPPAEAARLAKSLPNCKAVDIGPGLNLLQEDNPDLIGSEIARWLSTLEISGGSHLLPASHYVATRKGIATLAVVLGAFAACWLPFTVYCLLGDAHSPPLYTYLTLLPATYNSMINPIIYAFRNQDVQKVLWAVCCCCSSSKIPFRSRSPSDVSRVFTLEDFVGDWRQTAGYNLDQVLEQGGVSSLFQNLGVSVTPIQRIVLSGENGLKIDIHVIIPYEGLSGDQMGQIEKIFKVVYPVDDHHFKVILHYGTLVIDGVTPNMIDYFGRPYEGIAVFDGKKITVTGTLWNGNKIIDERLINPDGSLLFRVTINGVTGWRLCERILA
T2 sequence (P46089 whole entry): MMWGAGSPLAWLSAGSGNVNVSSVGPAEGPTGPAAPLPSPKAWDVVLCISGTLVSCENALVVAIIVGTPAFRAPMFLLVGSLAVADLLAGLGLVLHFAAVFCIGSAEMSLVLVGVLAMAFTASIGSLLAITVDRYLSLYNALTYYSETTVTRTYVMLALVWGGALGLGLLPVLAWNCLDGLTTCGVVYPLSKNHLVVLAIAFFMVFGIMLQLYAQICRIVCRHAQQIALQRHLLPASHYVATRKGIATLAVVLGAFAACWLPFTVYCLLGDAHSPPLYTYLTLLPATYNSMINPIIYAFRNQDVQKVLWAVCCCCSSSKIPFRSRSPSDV

Row | SMILES | BRET response of GPR3 biosensor (direction, words) (GPR3 [1]) | EC50 (GPR3 [1]; transiently expressing HEK293A cells, read-out: EC50 of BRET increase at conformational GPR3 biosensor) [nM] | GPR3-dependent change in cAMP (GPR3 [2]) | specificity of conformational response for GPR3 vs β2AR-HaloTag/Nluc (β2AR)
1 | CC(C)Oc1cc(Cl)ccc1CNc1cc(-c2ccccc2)nc2ncnn12 [AF64394, reference compound] | time- and ligand-concentration-dependent increase in BRET | 161 | concentration-dependent reduction of cAMP | –
2 | CCCCCCCC/C=C\CCCCCCCC(=O)NCCO [OEA, reference compound] | concentration-dependent decreases in BRET | – | – | –
3 | O=C(C1COc2ccccc2O1)N1CCC(Cn2cncn2)(C2CCCCC2)CC1 (stereo not shown) [compound 93] | – | – | to a much lesser extent | concentration-dependent and GPR3-specific conformational changes
4 | CCCCCCCC/C=C\CCCCCCCC(N)=O [oleamide, reference compound] | concentration-dependent decreases in BRET | – | – | –
